In patent US8183238B2, “Bicyclic and tricyclic compounds as KAT II inhibitors” (priority 2009, dated 2012) one finds IC50 data, which are given here for 27 compounds.

Counter-ions that a name gives are not always drawn.

The target in this assay is human KAT II (hKAT II) enzyme (Homo sapiens, UniProt Q8N5Z0). Nature of the assay: KAT II Inhibition Spectra Assay. The format is biochemical. The settings on record: Table 6; hKAT II, decrease in OD370, 37° C., 15-20 h; read-out: KATII IC50. A digest of the protocol: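 hKAT II (15 nM, 3× stock) converts L-kynurenine (3 mM, 3× stock) with α-ketoglutarate and PLP in Tris acetate; 15–20 h at 37 °C. Inhibition of the OD370 decrease read versus DMSO wells across a concentration range gives IC50.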
human KAT II (hKAT II) enzyme, sequence (Q8N5Z0 30-425): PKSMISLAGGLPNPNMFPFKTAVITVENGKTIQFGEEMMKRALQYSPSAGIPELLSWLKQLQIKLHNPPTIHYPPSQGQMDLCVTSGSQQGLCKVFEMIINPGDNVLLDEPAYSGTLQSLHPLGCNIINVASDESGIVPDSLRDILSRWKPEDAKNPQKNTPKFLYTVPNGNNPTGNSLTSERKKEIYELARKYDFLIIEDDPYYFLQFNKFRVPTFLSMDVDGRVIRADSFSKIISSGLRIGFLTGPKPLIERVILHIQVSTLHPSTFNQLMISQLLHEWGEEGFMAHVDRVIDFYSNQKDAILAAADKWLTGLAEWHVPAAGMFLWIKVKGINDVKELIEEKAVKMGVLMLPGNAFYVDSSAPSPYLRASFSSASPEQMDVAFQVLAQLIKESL

In the case of `N[C@H]1Cc2cc(-c3cccc(F)c3)ccc2N(O)C1=O` [Example 139, (3S)-3-amino-6-(3-fluorophenyl)-1-hydroxy-3,4-dihydroquinolin-2(1H)-one, trifluoroacetate salt], the IC50 (in general, the concentration needed to halve the response being measured) was determined as 66.1 nM.

Consider `N[C@H]1Cc2cc(-c3ccc(Cl)cc3)ccc2N(O)C1=O` [Example 140, (3S)-3-amino-6-(4-chlorophenyl)-1-hydroxy-3,4-dihydroquinolin-2(1H)-one, trifluoroacetate salt], for which the IC50 came out at 252 nM.

`CCOc1ccccc1-c1ccc2c(c1)C[C@H](N)C(=O)N2O` [Example 141, (3S)-3-amino-6-(2-ethoxyphenyl)-1-hydroxy-3,4-dihydroquinolin-2(1H)-one, trifluoroacetate salt]: the IC50 is 283 nM. With `N[C@H]1Cc2cc(-c3ccc(F)cc3)ccc2N(O)C1=O` [Example 142, (3S)-3-amino-6-(4-fluorophenyl)-1-hydroxy-3,4-dihydroquinolin-2(1H)-one, trifluoroacetate salt] the figure was 102 nM; with `N[C@H]1Cc2cc(-c3cccc(Cl)c3)ccc2N(O)C1=O` [Example 143, (3S)-3-amino-6-(3-chlorophenyl)-1-hydroxy-3,4-dihydroquinolin-2(1H)-one, trifluoroacetate salt], 96 nM. With `N[C@H]1Cc2cc(-c3cccc(C(F)(F)F)c3)ccc2N(O)C1=O` [Example 144, (3S)-3-amino-1-hydroxy-6-[3-(trifluoromethyl)phenyl]-3,4-dihydroquinolin-2(1H)-one, trifluoroacetate salt] the figure was 145 nM; with `N[C@H]1Cc2cc(-c3cccc(Cl)c3Cl)ccc2N(O)C1=O` [Example 145, (3S)-3-amino-6-(2,3-dichlorophenyl)-1-hydroxy-3,4-dihydroquinolin-2(1H)-one, trifluoroacetate salt], 179 nM. As to `Cc1cccc(-c2ccc3c(c2)C[C@H](N)C(=O)N3O)c1` [Example 146, (3S)-3-amino-1-hydroxy-6-(3-methylphenyl)-3,4-dihydroquinolin-2(1H)-one, trifluoroacetate salt], the IC50 was determined as 78.6 nM. To `N[C@H]1Cc2cc(-c3ccc(F)cc3F)ccc2N(O)C1=O` [Example 147, (3S)-3-amino-6-(2,4-difluorophenyl)-1-hydroxy-3,4-dihydroquinolin-2(1H)-one, trifluoroacetate salt] belongs 75.6 nM. In the case of `N[C@H]1Cc2cc(-c3c(F)cccc3F)ccc2N(O)C1=O` [Example 148, (3S)-3-amino-6-(2,6-difluorophenyl)-1-hydroxy-3,4-dihydroquinolin-2(1H)-one, trifluoroacetate salt], the IC50 was 76.1 nM. With `CCc1ccccc1-c1ccc2c(c1)C[C@H](N)C(=O)N2O` [Example 149, (3S)-3-amino-6-(2-ethylphenyl)-1-hydroxy-3,4-dihydroquinolin-2(1H)-one, trifluoroacetate salt] the figure was 118 nM.

Take `N[C@H]1Cc2cc(-c3ccccc3)ccc2N(O)C1=O` [Example 150, (3S)-3-amino-1-hydroxy-6-phenyl-3,4-dihydroquinolin-2(1H)-one, trifluoroacetate salt]: the IC50 amounted to 96.7 nM. To `COc1ncccc1-c1ccc2c(c1)C[C@H](N)C(=O)N2O` [Example 151, (3S)-3-amino-1-hydroxy-6-(2-methoxypyridin-3-yl)-3,4-dihydroquinolin-2(1H)-one, trifluoroacetate salt] belongs 63.6 nM. With `N[C@H]1Cc2cc(-c3cc(F)ccc3Cl)ccc2N(O)C1=O` [Example 152, (3S)-3-amino-6-(2-chloro-5-fluorophenyl)-1-hydroxy-3,4-dihydroquinolin-2(1H)-one, trifluoroacetate salt] the figure was 94 nM. With `COc1ccc(-c2ccc3c(c2)C[C@H](N)C(=O)N3O)cc1` [Example 153, (3S)-3-amino-1-hydroxy-6-(4-methoxyphenyl)-3,4-dihydroquinolin-2(1H)-one, trifluoroacetate salt] the figure was 162 nM; with `N[C@H]1Cc2cc(-c3ccccc3Cl)ccc2N(O)C1=O` [Example 154, (3S)-3-amino-6-(2-chlorophenyl)-1-hydroxy-3,4-dihydroquinolin-2(1H)-one, trifluoroacetate salt], 96.5 nM; with `COc1cccc(-c2ccc3c(c2)C[C@H](N)C(=O)N3O)c1` [Example 155, (3S)-3-amino-1-hydroxy-6-(3-methoxyphenyl)-3,4-dihydroquinolin-2(1H)-one, trifluoroacetate salt], 136 nM. Take `N[C@H]1Cc2cc(Oc3ccc(F)c(Cl)c3)ccc2N(O)C1=O` [Example 156, (3S)-3-amino-6-(3-chloro-4-fluorophenoxy)-1-hydroxy-3,4-dihydroquinolin-2(1H)-one, trifluoroacetate salt]: the concentration for half-maximal inhibition (IC50) stood at 86.7 nM. With `N[C@H]1Cc2cc(Oc3cc(F)ccc3F)ccc2N(O)C1=O` [Example 157, (3S)-3-amino-6-(2,5-difluorophenoxy)-1-hydroxy-3,4-dihydroquinolin-2(1H)-one, trifluoroacetate salt] the figure was 68.5 nM; with `N[C@H]1Cc2cc(Oc3ccc(Cl)c(C(F)(F)F)c3)ccc2N(O)C1=O` [Example 158, (3S)-3-amino-6-[4-chloro-3-(trifluoromethyl)phenoxy]-1-hydroxy-3,4-dihydroquinolin-2(1H)-one, trifluoroacetate salt], 126 nM.

On to `N[C@H]1Cc2cc(Oc3ccc(F)c(C(F)(F)F)c3)ccc2N(O)C1=O` [Example 159, (3S)-3-amino-6-[4-fluoro-3-(trifluoromethyl)phenoxy]-1-hydroxy-3,4-dihydroquinolin-2(1H)-one, trifluoroacetate salt], for which the IC50 was determined as 109 nM. As for `N[C@H]1Cc2cc(Oc3cccc(C(F)(F)F)c3F)ccc2N(O)C1=O` [Example 160, (3S)-3-amino-6-[2-fluoro-3-(trifluoromethyl)phenoxy]-1-hydroxy-3,4-dihydroquinolin-2(1H)-one, trifluoroacetate salt], the IC50 was found to be 101 nM. With `N[C@H]1Cc2cc(Oc3ccc(F)cc3Cl)ccc2N(O)C1=O` [Example 161, (3S)-3-amino-6-(2-chloro-4-fluorophenoxy)-1-hydroxy-3,4-dihydroquinolin-2(1H)-one, trifluoroacetate salt] the figure was 54 nM; with `N[C@H]1Cc2cc(Oc3ccc(F)c(F)c3)ccc2N(O)C1=O` [Example 162, (3S)-3-amino-6-(3,4-difluorophenoxy)-1-hydroxy-3,4-dihydroquinolin-2(1H)-one, trifluoroacetate salt], 46.7 nM; with `N[C@H]1Cc2cc(Oc3ccc(Cl)c(Cl)c3)ccc2N(O)C1=O` [Example 163, (3S)-3-amino-6-(3,4-dichlorophenoxy)-1-hydroxy-3,4-dihydroquinolin-2(1H)-one, trifluoroacetate salt], 60 nM.

In the case of `N#Cc1ccc(Oc2ccc3c(c2)C[C@H](N)C(=O)N3O)cc1C(F)(F)F` [Example 164, 4-{[(3S)-3-amino-1-hydroxy-2-oxo-1,2,3,4-tetrahydroquinolin-6-yl]oxy}-2-(trifluoromethyl)benzonitrile, trifluoroacetate salt], the IC50 was 42.2 nM. To `Cc1ccc(F)cc1Oc1ccc2c(c1)C[C@H](N)C(=O)N2O` [Example 165, (3S)-3-amino-6-(5-fluoro-2-methylphenoxy)-1-hydroxy-3,4-dihydroquinolin-2(1H)-one, trifluoroacetate salt] belongs 96.6 nM.
